Where two headings read alike, the source gives them in different places.
How the values were obtained:
Format in all cases: cell-based
[1] = tested on: MT-4 cells; experiment: Cellular toxicity in MT-4 cells (XTT staining); conditions: 6 days incubation, read-out: TC50 (50% reduction in cell viability)
Experimental: (§1) The compounds were evaluated for inhibition of HIV-1IIIB infection and cellular toxicity in MT-4 cells.
(§2) The MT-4 cells and […] used in the HIV-1 inhibition assays were obtained from the AIDS Research and Reference Program (Rockville, MD) and propagated as recommended by the supplier.
(§3) Fifty microliters (50 μL) of MT-4 cells at a density of 1.0×10^4 cells/well in 10% complete RPMI-1640 (10% FBS supplemented with 1% L-glutamine and 1% Penicillin/Streptomycin) media were plated in a 96-well flat bottom plate. One-hundred microliters (100 μL) of each compound at 12 concentrations were added in triplicate followed by 50 μL of HIV-1IIIB at a pre-determined titer. The cultures were incubated for 6 days at 37° C./5% CO2. Following the incubation, the cells were stained with XTT for evaluation of compound efficacy and cellular toxicity, as described below.
(§4) Efficacy and toxicity values for the test materials were derived by measuring the reduction of the tetrazolium dye XTT (2,3-bis(2-methoxy-4-nitro-5-sulfophenyl)-5-[(phenylamino)carbonyl]-2H-tetrazolium hydroxide). XTT in metabolically active cells is metabolized by the mitochondrial enzyme NADPH oxidase to a soluble formazan product. XTT solution was prepared daily as a stock of 1 mg/mL in RPMI-1640 without additives. Phenazine methosulfate (PMS) solution was prepared at 0.15 mg/mL in DPBS and stored in the dark at −20° C. XTT/PMS stock was prepared immediately before use by adding 40 μL of PMS per mL of XTT solution. Fifty μL (50 μL) of XTT/PMS was added to each well of the plate and the plate incubated for 4 hours at 37° C. The 4-hour incubation has been empirically determined to be within the linear response range for XTT dye reduction with the indicated numbers of cells for each assay. The plates were sealed and inverted several times to mix the soluble formazan product and the plate was read at 450 nm (650 nm reference wavelength) with a Molecular Devices SpectraMax Plus 384 96 well plate format spectrophotometer.
(§5) Microsoft Excel 2010 in combination with XLfit4 was used to analyze and graph the data. EC50 (50% inhibition of virus replication), TC50 (50% reduction in cell viability) and a therapeutic index (TC50/EC50) are provided. Raw data for both antiviral activity and toxicity with a graphic representation of the data are provided in a printout summarizing the compound activity.

[2] = tested on: HIV-1IIIB; experiment: Inhibition of HIV-1IIIB infection in MT-4 cells (XTT staining); conditions: HIV-1IIIB in MT-4 cells; for EC50: 6 days incubation, XTT, read-out: EC50 (50% inhibition of virus replication)
Experimental: as §1, §2, §3, §4, §5

[3] = Cellular toxicity in MT-4 cells (XTT staining); conditions: human, 6 days incubation, read-out: TC50 (50% reduction in cell viability)
Experimental: as §1, §2, §3, §4, §5

[4] = Human immunodeficiency virus 1, MT4, 144 h

Compound | CC50 [1] | Therapeutic Index (TC50/EC50) [2] | EC50 [2] | CC50 at 6 days [3] | EC50 [2, 4]
CS(=O)(=O)Nc1nn(CC(F)(F)F)c2c(-n3c([C@H](Cc4cc(F)cc(F)c4)NC(=O)Cn4nc(C(F)(F)F)c5c4C(F)(F)[C@@H]4C[C@H]54)nc4ncsc4c3=O)ccc(Cl)c12 (atropisomer, axis not shown) [Compound 31] | > 100 nM | >384.6 | 0.26 nM | – | –
CN(C)c1nc2nc([C@H](Cc3cc(F)cc(F)c3)NC(=O)Cn3nc(C(F)(F)F)c4c3C(F)(F)[C@@H]3C[C@H]43)n(-c3ccc(Cl)c4c(NS(C)(=O)=O)nn(C)c34)c(=O)c2s1 (atropisomer, axis not shown) [Compound 48] | – | >432.9 | – | > 100 nM | 0.231 nM
CS(=O)(=O)Nc1nn(CC(F)(F)F)c2c(-n3c([C@H](Cc4cc(F)cc(F)c4)NC(=O)Cn4nc(C(F)(F)F)c5c4C(F)(F)[C@@H]4C[C@H]54)nc4sccc4c3=O)ccc(Cl)c12 [Compound 1] | – | >312.5 | – | > 100 nM | 0.32 nM
Cn1nc(NS(C)(=O)=O)c2c(Cl)ccc(-n3c([C@H](Cc4cc(F)cc(F)c4)NC(=O)Cn4nc(C(F)(F)F)c5c4C(F)(F)[C@@H]4C[C@H]54)nc4nc(N5CCOCC5)sc4c3=O)c21 [Compound 51] | – | >518.1 | – | > 100 nM | 0.193 nM
CS(=O)(=O)Nc1nn(CC(F)(F)F)c2c(-n3c([C@H](Cc4cc(F)cc(F)c4)NC(=O)Cn4nc(C(F)(F)F)c5c4C(F)(F)[C@@H]4C[C@H]54)nc4ncsc4c3=O)ccc(Cl)c12 [Compound 3] | – | >625.0 | – | > 100 nM | 0.16 nM
Cn1nc(NS(C)(=O)=O)c2c(Cl)ccc(-n3c([C@H](Cc4cc(F)cc(F)c4)NC(=O)Cn4nc(C(F)(F)F)c5c4C(F)(F)C4CC54)nc4nc(S(C)(=O)=O)sc4c3=O)c21 (stereo partly drawn) [Compound 29] | – | >2.9 | 34.9 nM | > 100 nM | –
Cn1nc(NS(C)(=O)=O)c2c(Cl)ccc(-n3c([C@H](Cc4cc(F)cc(F)c4)NC(=O)Cn4nc(C(F)(F)F)c5c4C(F)(F)[C@@H]4C[C@H]54)nc4sc(-c5ccc(F)cc5)cc4c3=O)c21 (atropisomer, axis not shown) [Compound 42] | – | >26.4 | – | > 100 nM | 3.79 nM
Cn1nc(NS(C)(=O)=O)c2c(Cl)ccc(-n3c([C@H](Cc4cc(F)cc(F)c4)NC(=O)Cn4nc(C(F)(F)F)c5c4C(F)(F)C4CC54)nc4nc(S(C)(=O)=O)sc4c3=O)c21 (stereo partly drawn) [Compound 30] | > 100 nM | – | > 100 nM | – | –
Cn1nc(NS(C)(=O)=O)c2c(Cl)ccc(-n3c([C@H](Cc4cc(F)cc(F)c4)NC(=O)Cn4nc(C(F)(F)F)c5c4C(F)(F)[C@@H]4C[C@H]54)nc4sccc4c3=O)c21 (atropisomer, axis not shown) [Compound 33] | > 100 nM | >294.1 | 0.34 nM | – | –
Cn1nc(NS(C)(=O)=O)c2c(Cl)ccc(-n3c([C@H](Cc4cc(F)cc(F)c4)NC(=O)Cn4nc(C(F)(F)F)c5c4C(F)(F)[C@@H]4C[C@H]54)nc4nc(OCCC(F)(F)F)sc4c3=O)c21 (atropisomer, axis not shown) [Compound 53] | – | >980.4 | – | > 100 nM | 0.102 nM
Cn1nc(NS(C)(=O)=O)c2c(Cl)ccc(-n3c([C@H](Cc4cc(F)cc(F)c4)NC(=O)Cn4nc(C(F)(F)F)c5c4C(F)(F)[C@@H]4C[C@H]54)nc4sc(CC(F)(F)F)cc4c3=O)c21 [Compound 43] | – | >31.7 | – | > 100 nM | 3.15 nM
Cn1nc(NS(C)(=O)=O)c2c(Cl)ccc(-n3c([C@H](Cc4cc(F)cc(F)c4)NC(=O)Cn4nc(C(F)(F)F)c5c4C(F)(F)[C@@H]4C[C@H]54)nc4c(c3=O)CCCN4)c21 (atropisomer, axis not shown) [Compound 34] | – | >42.6 | – | > 100 nM | 2.35 nM
COCCNc1nc2nc([C@H](Cc3cc(F)cc(F)c3)NC(=O)Cn3nc(C(F)(F)F)c4c3C(F)(F)[C@@H]3C[C@H]43)n(-c3ccc(Cl)c4c(NS(C)(=O)=O)nn(C)c34)c(=O)c2s1 [Compound 46] | – | >510.2 | – | > 100 nM | 0.196 nM
CN(CCC(F)(F)F)c1nc2nc([C@H](Cc3cc(F)cc(F)c3)NC(=O)Cn3nc(C(F)(F)F)c4c3C(F)(F)[C@@H]3C[C@H]43)n(-c3ccc(Cl)c4c(NS(C)(=O)=O)nn(C)c34)c(=O)c2s1 [Compound 50] | – | >1136.4 | – | > 100 nM | 0.088 nM
Cn1nc(NS(C)(=O)=O)c2c(Cl)ccc(-n3c([C@H](Cc4cc(F)cc(F)c4)NC(=O)Cn4nc(C(F)(F)F)c5c4C(F)(F)[C@@H]4C[C@H]54)nc4nc(NCCC(F)(F)F)sc4c3=O)c21 [Compound 49] | – | >458.7 | – | > 100 nM | 0.218 nM
Cc1nsc2nc([C@H](Cc3cc(F)cc(F)c3)NC(=O)Cn3nc(C(F)(F)F)c4c3C(F)(F)[C@@H]3C[C@H]43)n(-c3ccc(Cl)c4c(NS(C)(=O)=O)nn(C)c34)c(=O)c12 (atropisomer, axis not shown) [Compound 44] | – | >2.9 | 34.1 nM | > 100 nM | –
CC1(C)CN(c2nc3nc([C@H](Cc4cc(F)cc(F)c4)NC(=O)Cn4nc(C(F)(F)F)c5c4C(F)(F)[C@@H]4C[C@H]54)n(-c4ccc(Cl)c5c(NS(C)(=O)=O)nn(CC(F)(F)F)c45)c(=O)c3s2)CCO1 (racemic) [Compound 52] | – | >653.6 | – | > 100 nM | 0.153 nM
Cn1nc(NS(C)(=O)=O)c2c(Cl)ccc(-n3c([C@H](Cc4cc(F)cc(F)c4)NC(=O)Cn4nc(C(F)(F)F)c5c4C(F)(F)[C@@H]4C[C@H]54)nc4nc(N5CCOC(C)(C)C5)sc4c3=O)c21 (atropisomer, axis not shown) [Compound 40] | – | >492.6 | – | > 100 nM | 0.203 nM
Cn1nc(NS(C)(=O)=O)c2c(Cl)ccc(-n3c([C@H](Cc4cc(F)cc(F)c4)NC(=O)Cn4nc(C(F)(F)F)c5c4C(F)(F)[C@@H]4C[C@H]54)nc4onc(-c5ccccc5)c4c3=O)c21 (atropisomer, axis not shown) [Compound 37] | – | >9.0 | 11.1 nM | > 100 nM | –
Cn1nc(NS(C)(=O)=O)c2c(Cl)ccc(-n3c([C@H](Cc4cc(F)cc(F)c4)NC(=O)Cn4nc(C(F)(F)F)c5c4C(F)(F)[C@@H]4C[C@H]54)nc4ncsc4c3=O)c21 (atropisomer, axis not shown) [Compound 35] | – | – | > 100 nM | > 100 nM | –
Cn1nc(NS(C)(=O)=O)c2c(Cl)ccc(-n3c([C@H](Cc4cc(F)cc(F)c4)NC(=O)Cn4nc(C(F)(F)F)c5c4C(F)(F)[C@@H]4C[C@H]54)nc4cc(N5CCCC5)sc4c3=O)c21 [Compound 39] | – | >5.4 | – | > 100 nM | 18.6 nM
Cn1nc(NS(C)(=O)=O)c2c(Cl)ccc(-n3c([C@H](Cc4cc(F)cc(F)c4)NC(=O)Cn4nc(C(F)(F)F)c5c4C(F)(F)[C@@H]4C[C@H]54)nc4nc(N5CC6(COC6)C5)sc4c3=O)c21 (atropisomer, axis not shown) [Compound 41] | – | >193.4 | – | > 100 nM | 0.517 nM
Cn1nc(NS(C)(=O)=O)c2c(Cl)ccc(-n3c([C@H](Cc4cc(F)cc(F)c4)NC(=O)Cn4nc(C(F)(F)F)c5c4C(F)(F)[C@@H]4C[C@H]54)nc4sccc4c3=O)c21 (atropisomer, axis not shown) [Compound 32] | – | – | > 100 nM | > 100 nM | –
Cn1nc(NS(C)(=O)=O)c2c(Cl)ccc(-n3c([C@H](Cc4cc(F)cc(F)c4)NC(=O)Cn4nc(C(F)(F)F)c5c4C(F)(F)[C@@H]4C[C@H]54)nc4nc(NCCO)sc4c3=O)c21 [Compound 47] | – | >83.3 | – | > 100 nM | 1.2 nM

From patent publication US20240327428A1, “Inhibitors of human immunodeficiency virus replication, method of making and method of using thereof” (ASCLETIS BIOSCIENCE CO., LTD., priority 2023, published 2024)
